From US8912144B2, “Method for treating stroke via administration of NEP1-40 and inosine” (Children's Medical Center Corporation, priority 2003, dated 2014)

Tested on: corticospinal neurons (CSNs/CSMNs)
Experiment: Laser-capture microdissection and Illumina microarray gene expression in corticospinal neurons contralateral to stroke
Format: in vivo, rat
Method: In a separate group of animals (n=20), layer V pyramidal cells of the sensorimotor cortex were retrogradely labeled by injecting Alexa-Fluor-488-conjugated cholera toxin B subunit (CTB; 300 U/μl in sterile saline) into the cervical spinal cord. For this, animals were anesthetized with a combination of ketamine and Domitor (medetomidine) and a laminectomy was performed at the cervical level of the spinal cord (C2-C4). CTB was stereotaxically delivered into four sites lateral to the corticospinal tract. Injections (1.3 μl) were spaced 1 mm apart on the rostro-caudal axis, and were made 0.5 mm to the left and right of the midline. After allowing two weeks for transport of the tracer, we performed either sham surgery with no treatment (n=6) or stroke surgery combined with saline (n=3) or inosine (n=4) treatment as described above. Seven days later, animals were decapitated under transient gas anesthesia, brains were removed and rinsed in cold RPMI medium, and a tissue block containing the sensorimotor cortex was dissected and placed in OCT Tissue Tek Medium (Sakura Finetek USA Inc., CA) on dry ice within five minutes of death. Ten μm sections were cut onto precleaned Gold Seal RITE-ON glass slides (Gold Seal Prod-ucts, Portsmouth, N.H.), placed on dry ice, and rapidly stored at −80° C.
Slide-mounted sections were thawed and dehydrated in RNAse-free ethanol gradients and xylene. Retro-gradely labeled, fluorescent cortical pyramidal cells in the undamaged hemisphere were individually captured using the Arcturus VERITAS system. ≧500 cells were collected from each animal and stored in Arcturus extraction buffer at −80° C. Total RNA was extracted from cells using the Micro-to-Midi TotalRNA Purification System (Invitrogen, Carlsbad Calif.) and double-amplified using the TargetAmp 2-Round Aminoallyl-aRNA Amplification kit 1.0 (Epicentre, Madison, Wis.). Amplified RNA was checked for average fragment length using the Agilent RNA 6000 Nano LabChip kit (Agilent Technologies, Santa Clara, Calif.) and then biotinylated and hybridized (1 μg) on Illumina RatRef-12 Expression BeadChip arrays (Illumina, San Diego Calif.), querying the expression of >22,000 RefSeq-curated rat transcripts. Results were obtained from a total of 15 samples representing 6 untreated controls, 4 animals with stroke treated with saline and 5 animals with stroke treated with inosine. Slides were processed and scanned with Illumina BeadStation platform according to the manufacturer protocol.
Raw data was analyzed using Bioconductor packages (www.bioconductor.org, (Gentleman et al., 2004)). Low level quality-control analysis was performed using inter-array Pearson correlation and clustering based on variance. Two arrays (1 saline and 1 inosine-treated) were outliers and were excluded from the analysis. Data was normalized using quantile normalization, and analysis of differential expression was performed using a linear model fitting (LIMMA package, (Smyth, 2005). Differentially expressed genes were classified according to gene ontology using Bioconductor packages and online tools (DAVID, http://david.abcc.ncifcrf.gov/). Pathway analysis was carried out using Ingenuity Pathway Analysis (Ingenuity Systems, www.ingenuity.com).

Structure (SMILES): OC[C@H]1O[C@@H](n2cnc3c(O)ncnc32)[C@H](O)[C@@H]1O [inosine]
- Signal Intensity, Spnb4 (ILMN_66300, inosine after stroke): 1147
- Fold-Induction Stroke, ino vs. cntrl, Bbp (ILMN_66323): 0.58
- Signal Intensity, Bbp (ILMN_66323, inosine after stroke): 1150
- Fold-Induction Stroke, ino vs. cntrl, LOC305122 (ILMN_66350): 0.58
- Signal Intensity, LOC305122 (ILMN_66350, inosine after stroke): 771
- Fold-Induction Stroke, ino vs. cntrl, Plekhb1 (ILMN_66651): 0.62
- Signal Intensity, Plekhb1 (ILMN_66651, inosine after stroke): 1687
- Fold-Induction Stroke, ino vs. cntrl, Ppp1r11 (ILMN_66809): 0.90
- Signal Intensity, Ppp1r11 (ILMN_66809, inosine after stroke): 865
- Fold-Induction Stroke, ino vs. cntrl, LOC501538 (ILMN_66820): 0.64
- Signal Intensity, LOC501538 (ILMN_66820, inosine after stroke): 1132
- Fold-Induction Stroke, ino vs. cntrl, Slc25a11 (ILMN_66823): 0.65
- Signal Intensity, Slc25a11 (ILMN_66823, inosine after stroke): 263
- Fold-Induction Stroke, ino vs. cntrl, Optn (ILMN_67016): 0.69
- Signal Intensity, Optn (ILMN_67016, inosine after stroke): 360
- Fold-Induction Stroke, ino vs. cntrl, Lxn (ILMN_67020): 0.72
- Signal Intensity, Lxn (ILMN_67020, inosine after stroke): 433
- Fold-Induction Stroke, ino vs. cntrl, Psmc5 (ILMN_67036): 0.54
- Signal Intensity, Psmc5 (ILMN_67036, inosine after stroke): 1620
- Fold-Induction Stroke, ino vs. cntrl, MGC72992 (ILMN_67222): 0.63
- Signal Intensity, MGC72992 (ILMN_67222, inosine after stroke): 359
- Fold-Induction Stroke, ino vs. cntrl, Ywhaq (ILMN_67273): 0.66
- Signal Intensity, Ywhaq (ILMN_67273, inosine after stroke): 2844
- Fold-Induction Stroke, ino vs. cntrl, LOC498696 (ILMN_67275): 0.51
- Signal Intensity, LOC498696 (ILMN_67275, inosine after stroke): 514
- Fold-induction CSMNs: Cd63 (ILMN_67382, over and above inosine's effect of decreasing stroke-induced changes): 2.10 fold
- Fold-Induction Stroke, ino vs. cntrl, Ggcx (ILMN_67463): 0.93
- Signal Intensity, Ggcx (ILMN_67463, inosine after stroke): 526
- Fold-Induction Stroke, ino vs. cntrl, Kif3b (ILMN_67572): 0.79
- Signal Intensity, Kif3b (ILMN_67572, inosine after stroke): 642
- Fold-Induction Stroke, ino vs. cntrl, Zfp422 (ILMN_67578): 0.99
- Signal Intensity, Zfp422 (ILMN_67578, inosine after stroke): 557
- Fold-induction CSMNs: Ms4a6b (ILMN_67686, over and above inosine's effect of decreasing stroke-induced changes): 2.03 fold
- Fold-Induction Stroke, ino vs. cntrl, Dcamkl1 (ILMN_67724): 0.59
- Signal Intensity, Dcamkl1 (ILMN_67724, inosine after stroke): 4398
- Fold-Induction Stroke, ino vs. cntrl, LOC501601 (ILMN_67885): 0.54
- Signal Intensity, LOC501601 (ILMN_67885, inosine after stroke): 791
- Fold-Induction Stroke, ino vs. cntrl, Ca2 (ILMN_67903): 0.47
- Signal Intensity, Ca2 (ILMN_67903, inosine after stroke): 1008
- Fold-Induction Stroke, ino vs. cntrl, LOC287622 (ILMN_67961): 0.69
- Signal Intensity, LOC287622 (ILMN_67961, inosine after stroke): 400
- Fold-induction CSMNs: Gfap (ILMN_68224, over and above inosine's effect of decreasing stroke-induced changes): 2.46 fold
- Fold-Induction Stroke, ino vs. cntrl, Lkap (ILMN_68337): 0.64
- Signal Intensity, Lkap (ILMN_68337, inosine after stroke): 758
- Fold-Induction Stroke, ino vs. cntrl, Gsn (ILMN_68511): 0.64
- Signal Intensity, Gsn (ILMN_68511, inosine after stroke): 2157
- Fold-Induction Stroke, ino vs. cntrl, Flot2 (ILMN_68584): 0.70
- Signal Intensity, Flot2 (ILMN_68584, inosine after stroke): 667
- Fold-Induction Stroke, ino vs. cntrl, Rab40b (ILMN_68736): 0.63
- Signal Intensity, Rab40b (ILMN_68736, inosine after stroke): 476
- Fold-Induction Stroke, ino vs. cntrl, Dhcr24 (ILMN_68892): 0.53
- Signal Intensity, Dhcr24 (ILMN_68892, inosine after stroke): 1032
- Fold-Induction Stroke, ino vs. cntrl, Sfxn3 (ILMN_68903): 0.57
- Signal Intensity, Sfxn3 (ILMN_68903, inosine after stroke): 261
- Fold-Induction Stroke, ino vs. cntrl, Tde2 (ILMN_68952): 0.53
- Signal Intensity, Tde2 (ILMN_68952, inosine after stroke): 545
- Fold-Induction Stroke, ino vs. cntrl, RGD1309158 (ILMN_69031): 0.52
- Signal Intensity, RGD1309158 (ILMN_69031, inosine after stroke): 630
- Fold-Induction Stroke, ino vs. cntrl, LOC289036 (ILMN_69224): 0.72
- Signal Intensity, LOC289036 (ILMN_69224, inosine after stroke): 1532
- Fold-induction CSMNs: Arpc1b (ILMN_69642, over and above inosine's effect of decreasing stroke-induced changes): 2.31 fold
- Fold-Induction Stroke, ino vs. cntrl, Ubl3 (ILMN_69708): 0.83
- Signal Intensity, Ubl3 (ILMN_69708, inosine after stroke): 479
- Fold-Induction, complement cascade gene Bf (B-factor, properdin) (ILMN_69719, LCM-captured CSMNs contralateral a stroke): 2.73 fold
- Fold-Induction Stroke, ino vs. cntrl, LOC296126 (ILMN_69931): 0.64
- Signal Intensity, LOC296126 (ILMN_69931, inosine after stroke): 332
- Fold-Induction Stroke, ino vs. cntrl, LOC315463 (ILMN_69949): 0.54
- Signal Intensity, LOC315463 (ILMN_69949, inosine after stroke): 709
- Fold-Induction Stroke, ino vs. cntrl, Zfp216 (ILMN_70270): 0.66
- Signal Intensity, Zfp216 (ILMN_70270, inosine after stroke): 888
- Fold-induction CSMNs: A2m (ILMN_70335, over and above inosine's effect of decreasing stroke-induced changes): 4.10 fold
- Fold-Induction Stroke, ino vs. cntrl, LOC366188 (ILMN_70369): 0.85
- Signal Intensity, LOC366188 (ILMN_70369, inosine after stroke): 1100
